Legend:
southern pine beetle [1] = test: Laboratory assay for effectiveness of repellent (circle of compound on cardboard, beetle response); type: in vivo; design: BEHAVIORAL RATING: scale not given here; conditions: for BEHAVIORAL RATING: numerical score for degree of behavioral response; for repelled behavioral response (in words): laboratory tests
Description: A) Laboratory Assay for Effectiveness of Repellent
The candidate compound was applied as a circle (17 cm in diameter by 5 mm in width) to a 28 by 21.5 cm piece of uncoated cardboard using a camel-hair brush. Three minutes after application, a beetle was placed in the center of the circle. In each trial, at least 20 healthy-appearing beetles were tested. Testing was conducted at room temperature (22°-25° C.) with light supplied from an adjoining room. The beetles were briefly refrigerated prior to testing to reduce their tendency to fly immediately upon release. An object was used to cast a shadow over the test circle in order to minimize response to light, which could interfere with the interpretation of insect response to an applied substance.

southern pine beetle [2] = test: Field assay with frontalure-baited Lindgren funnel traps; type: in vivo; conditions: for rank (relative repellency, 1 = best repellent): frontalure plus test compound; for mean rank: mean over the trials in which the compound was tested; for rank in reduction of trap captures: the two field trials in which they were tested, relative to 4-allylanisole
Description: B) Field Assays of the Effectiveness of Repellents
Field assays were carried out with selected 4-allylanisole analogs, including 4-allylanisole, anisole, 4-isopropylanisole, allylbenzene, 4-methylstyrene, toluene, and trans-anethole. The protocol for these assays is similar to that previously described (Hayes, et al., 1994a; Hayes and Strom, 1994c, both incorporated by reference as if fully set forth herein). Populations of local southern pine beetle were tested for response to these compounds using baited Lindgren funnel (16-funnel) traps. Traps were placed in or near active infestations of southern pine beetle over the course of the summer of 1997. Treatment baits consisted of the attractant frontalure and frontalure plus the test compound released from a 4-ml Samco pipette bulb. Hayes, et al., (J. Vozzo [ed.] Research and applications of chemical sciences in forestry: Proceeding of the 4th Southern Station Chemical Sciences Meeting, GTR-SO-104:69-80, 1994). Frontalure is a combination of frontalin, which is an aggregation pheromone of the southern pine beetle, and a-pinene, a synergistic host oleoresin compound. In most cases, each trap array consisted of a total of six traps: one frontalure-only treatment; one frontalure plus 4-allylanisole treatment, and four traps containing treatments of frontalure plus a 4-allylanisole analog. In one instance a 12-trap array was employed, the array having two traps per treatment.
(§1) Release rates were determined in preliminary studies using simple gravimetric measurement of bulbs to provide elution in mg/day units. Release rates of all analog compounds were equal to or greater than that of 4-allylanisole. Placement of treatments was originally assigned at random and rotated sequentially with each collection. Each array was collected through two full rotations. Whole traps were moved in order to eliminate the possibility of contamination. Collection cups contained a 5.5×2 cm piece of pest strip, containing as its active ingredient the insecticidal agent 2,2 dichlorovinyldimethylphosphate to kill the captured insects. The numbers of captured southern pine beetle and of predatory clerid beetle Thanasimus dubius, the most important natural enemy of the southern pine beetle, were determined. Data were analyzed using ANOVA (SAS PROC GLM) to determine if the mean numbers of southern pine beetles or clerids were affected by treatment. The positions of the traps were also taken into consideration in the model.

[3] = Release rate by gravimetric measurement of pipette bulbs; type: physicochemical; conditions: elution from 4-ml Samco pipette bulb, preliminary studies
Description: as §1

[4] = 30-second exposure, 3 min after application, at least 20 beetles per trial, 22-25 C
[5] = compounds marked * : originally tested with sample size of 45-53 beetles, published in Hayes et al. 1994

SMILES: CCOc1ccccc1OC [2-ethoxyanisole]
- % REPELLED (southern pine beetle [1]; [4]): 40%
- BEHAVIORAL RATING (southern pine beetle [1]; 30-second exposure): 2

SMILES: CCc1ccccc1O [2-ethylphenol]
- % REPELLED (southern pine beetle [1]; [4]): 50%
- BEHAVIORAL RATING (southern pine beetle [1]; 30-second exposure): 2

SMILES: COCC(=O)c1ccccc1 [2-methoxyacetophenone]
- % REPELLED (southern pine beetle [1]; [4]): 8%
- BEHAVIORAL RATING (southern pine beetle [1]; 30-second exposure): 2

SMILES: COc1ccccc1CO [2-methoxybenzyl alcohol]
- % REPELLED (southern pine beetle [1]; [4]): 0%
- BEHAVIORAL RATING (southern pine beetle [1]; 30-second exposure): 1

SMILES: COc1ccccc1C [2-methylanisole]
- % REPELLED (southern pine beetle [1]; [4]): 35%
- BEHAVIORAL RATING (southern pine beetle [1]; 30-second exposure): 1

SMILES: CCCc1ccccc1OC [2-propylanisole]
- % REPELLED (southern pine beetle [1]; [4]): 8%
- BEHAVIORAL RATING (southern pine beetle [1]; 30-second exposure): 2

SMILES: CCCc1ccccc1O [2-propylphenol]
- BEHAVIORAL RATING (southern pine beetle [1]; 30-second exposure): 2

SMILES: COc1cccc(C(C)=O)c1 [3-methoxyacetophenone]
- % REPELLED (southern pine beetle [1]; [4]): 8%
- BEHAVIORAL RATING (southern pine beetle [1]; 30-second exposure): 2

SMILES: COc1cccc(CO)c1 [3-methoxybenzyl alcohol]
- % REPELLED (southern pine beetle [1]; [4]): 0%
- BEHAVIORAL RATING (southern pine beetle [1]; 30-second exposure): 1

SMILES: C=CCc1ccc(OC)cc1 [4-allylanisole]
- rank (relative repellency, 1 = best repellent) (southern pine beetle [2]; TRIAL 1): 1
- rank (relative repellency, 1 = best repellent) (southern pine beetle [2]; TRIAL 2): 1
- rank (relative repellency, 1 = best repellent) (southern pine beetle [2]; TRIAL 3): 1
- rank (relative repellency, 1 = best repellent) (southern pine beetle [2]; TRIAL 4): 1
- rank (relative repellency, 1 = best repellent) (southern pine beetle [2]; TRIAL 5): 1
- rank (relative repellency, 1 = best repellent) (southern pine beetle [2]; TRIAL 6): 1
- beetles captured relative to other treatments (southern pine beetle [2]; all trials): fewest
- mean rank (southern pine beetle [2]): 1.0
- release rate [3]: 15.6 mg/day

SMILES: COc1ccc(C(C)C)cc1 [4-isopropylanisole]
- % REPELLED (southern pine beetle [1]; [5]): >90%
- rank (relative repellency, 1 = best repellent) (southern pine beetle [2]; TRIAL 1): 4
- rank (relative repellency, 1 = best repellent) (southern pine beetle [2]; TRIAL 2): 2
- rank (relative repellency, 1 = best repellent) (southern pine beetle [2]; TRIAL 3): 2
- rank (relative repellency, 1 = best repellent) (southern pine beetle [2]; TRIAL 4): 5
- rank (relative repellency, 1 = best repellent) (southern pine beetle [2]; TRIAL 5): 3
- rank (relative repellency, 1 = best repellent) (southern pine beetle [2]; TRIAL 6): 2
- mean rank (southern pine beetle [2]): 3.5
- release rate [3]: 16.45 mg/day

SMILES: COc1ccc(C(C)=O)cc1 [4-methoxyacetophenone]
- % REPELLED (southern pine beetle [1]; [4]): 96%
- BEHAVIORAL RATING (southern pine beetle [1]; 30-second exposure): 3

SMILES: COc1ccc(C=CC#N)cc1 [4-methoxycinnamonitrile]
- % REPELLED (southern pine beetle [1]; [5]): <20%

SMILES: COc1ccc(CC#N)cc1 [4-methoxypheylacetonitrile]
- % REPELLED (southern pine beetle [1]; [5]): <30%

SMILES: COc1ccc(C)cc1 [4-methylanisole]
- % REPELLED (southern pine beetle [1]; [4]): 45%
- BEHAVIORAL RATING (southern pine beetle [1]; 30-second exposure): 2

SMILES: C=Cc1ccc(C)cc1 [4-methylstyrene]
- repelled behavioral response (in words) (southern pine beetle [1]): modest repellent response
- BEHAVIORAL RATING (southern pine beetle [1]; 30-second exposure): 2
- rank (relative repellency, 1 = best repellent) (southern pine beetle [2]; TRIAL 3): 2
- rank (relative repellency, 1 = best repellent) (southern pine beetle [2]; TRIAL 4): 3
- mean rank (southern pine beetle [2]): 2.5
- rank in reduction of trap captures (southern pine beetle [2]): second and third
- release rate [3]: 674.75 mg/day

SMILES: COc1ccc(C(C)(C)C)cc1 [4-tert-butylanisole]
- % REPELLED (southern pine beetle [1]; [4]): 0%
- BEHAVIORAL RATING (southern pine beetle [1]; 30-second exposure): 1

SMILES: C=Cc1ccc(OC)cc1 [4-vinylanisole]
- % REPELLED (southern pine beetle [1]; [4]): 24%
- BEHAVIORAL RATING (southern pine beetle [1]; 30-second exposure): 2

SMILES: C=CCc1ccccc1 [allylbenzene]
- % REPELLED (southern pine beetle [1]; [5]): >90%
- rank (relative repellency, 1 = best repellent) (southern pine beetle [2]; TRIAL 1): 5
- rank (relative repellency, 1 = best repellent) (southern pine beetle [2]; TRIAL 2): 5
- rank (relative repellency, 1 = best repellent) (southern pine beetle [2]; TRIAL 5): 2
- rank (relative repellency, 1 = best repellent) (southern pine beetle [2]; TRIAL 6): 4
- mean rank (southern pine beetle [2]): 4.0
- release rate [3]: 128.2 mg/day

SMILES: COc1ccccc1 [anisole]
- % REPELLED (southern pine beetle [1]; [5]): >80%
- rank (relative repellency, 1 = best repellent) (southern pine beetle [2]; TRIAL 1): 3
- rank (relative repellency, 1 = best repellent) (southern pine beetle [2]; TRIAL 2): 4
- rank (relative repellency, 1 = best repellent) (southern pine beetle [2]; TRIAL 3): 4
- rank (relative repellency, 1 = best repellent) (southern pine beetle [2]; TRIAL 4): 2
- rank (relative repellency, 1 = best repellent) (southern pine beetle [2]; TRIAL 5): 5
- rank (relative repellency, 1 = best repellent) (southern pine beetle [2]; TRIAL 6): 3
- mean rank (southern pine beetle [2]): 3.5
- release rate [3]: 52.2 mg/day

SMILES: CCCCc1ccccc1 [butylbenzene]
- % REPELLED (southern pine beetle [1]; [4]): 39%
- BEHAVIORAL RATING (southern pine beetle [1]; 30-second exposure): 2

SMILES: CC(C)c1ccccc1 [cumene]
- % REPELLED (southern pine beetle [1]; [4]): 55%
- BEHAVIORAL RATING (southern pine beetle [1]; 30-second exposure): 3

SMILES: CCc1ccccc1 [ethylbenzene]
- % REPELLED (southern pine beetle [1]; [4]): 72%
- BEHAVIORAL RATING (southern pine beetle [1]; 30-second exposure): 3

SMILES: C=CCc1ccc(O)c(OC)c1 [eugenol]
- % REPELLED (southern pine beetle [1]; [5]): <40%

SMILES: Cc1cccc(C)c1 [m-xylene]
- % REPELLED (southern pine beetle [1]; [4]): 34%
- BEHAVIORAL RATING (southern pine beetle [1]; 30-second exposure): 2

SMILES: Cc1ccccc1C [o-xylene]
- % REPELLED (southern pine beetle [1]; [4]): 46%
- BEHAVIORAL RATING (southern pine beetle [1]; 30-second exposure): 2

SMILES: COc1ccc(C=O)cc1 [p-anisaldehyde]
- % REPELLED (southern pine beetle [1]; [4]): 65%
- BEHAVIORAL RATING (southern pine beetle [1]; 30-second exposure): 3

SMILES: Cc1ccc(C(C)C)cc1 [p-cymene]
- % REPELLED (southern pine beetle [1]; [4]): 28%
- BEHAVIORAL RATING (southern pine beetle [1]; 30-second exposure): 2

SMILES: Cc1ccc(C)cc1 [p-xylene]
- % REPELLED (southern pine beetle [1]; [4]): 50%
- BEHAVIORAL RATING (southern pine beetle [1]; 30-second exposure): 2

SMILES: CCOc1ccccc1 [phenetole]
- BEHAVIORAL RATING (southern pine beetle [1]; 30-second exposure): 2

SMILES: CCCc1ccccc1 [propylbenzene]
- % REPELLED (southern pine beetle [1]; [4]): 17%
- BEHAVIORAL RATING (southern pine beetle [1]; 30-second exposure): 1

SMILES: Cc1ccccc1 [toluene]
- repelled behavioral response (in words) (southern pine beetle [1]): modest repellent response
- BEHAVIORAL RATING (southern pine beetle [1]; 30-second exposure): 2
- rank (relative repellency, 1 = best repellent) (southern pine beetle [2]; TRIAL 1): 2
- rank (relative repellency, 1 = best repellent) (southern pine beetle [2]; TRIAL 2): 3
- mean rank (southern pine beetle [2]): 2.5
- rank in reduction of trap captures (southern pine beetle [2]): second and third
- release rate [3]: 462.6 mg/day

SMILES: C/C=C/c1ccc(OC)cc1 [trans-anethole]
- % REPELLED (southern pine beetle [1]; [5]): <20%
- rank (relative repellency, 1 = best repellent) (southern pine beetle [2]; TRIAL 3): 3
- rank (relative repellency, 1 = best repellent) (southern pine beetle [2]; TRIAL 4): 4
- rank (relative repellency, 1 = best repellent) (southern pine beetle [2]; TRIAL 5): 4
- rank (relative repellency, 1 = best repellent) (southern pine beetle [2]; TRIAL 6): 6
- mean rank (southern pine beetle [2]): 4.25
- release rate [3]: 44.65 mg/day

From patent US20020061325A1, “Container for 4-allylanisole and analog scolytid pesticides” (priority 1993, published 2002)
